The numbers were not newly measured in PMC1657008, “Rotavirus NSP4_114-135 peptide has no direct, specific effect on chloride transport in rabbit brush-border membrane” (Virology Journal, 2006), which cites them from elsewhere.

The series deals with neonatal mouse intestinal mucosal sheets. Conditions: added to neonatal mouse intestinal mucosal sheets; ref [1]. The text has this: However, the cellular and molecular bases by which rotavirus and NSP4 induce a moderate net chloride secretion remain unclear.

With `C[N+](C)(C)CCOC(N)=O` [carbachol], the Cl- secretory currents result is “transient, small and almost identical increases in Cl^- secretory currents”.
